PubChem BioAssay AID1963852 (Molecular Pharmacology Branch, DTP, NCI, 2024)

Tested on: 282377-053-R-J1-PDC complex spheroid viability
Test: Anticancer human tumor 282377-053-R-J1-PDC patient-derived colon adenocarcinoma cell line growth inhibition [POLQ]
Conditions: for IC50: curve of first compound; for viability, T/C: stronger effect = lower value; active = viability on the fitted dose curve at most 10% of control; inactive = the rest
How it was run: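 Three-cell-type spheroids modelling solid tumor plus stroma served as the readout system; POL inhibitors were tested individually and in combination, concentration ranges set by clinical Cmax where known.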

[1] = second compound 0.0316 µM, first compound 0.0316 µM
[2] = second compound 0.0316 µM, first compound 0.1 µM
[3] = second compound 0.0316 µM, first compound 0.316 µM
[4] = second compound 0.0316 µM, first compound 1 µM
[5] = second compound 0.0316 µM, first compound 3.16 µM
[6] = second compound 0.0316 µM, first compound 10 µM
[7] = second compound 0.1 µM, first compound 0.0316 µM
[8] = second compound 0.1 µM, first compound 0.1 µM
[9] = second compound 0.1 µM, first compound 0.316 µM
[10] = second compound 0.1 µM, first compound 1 µM
[11] = second compound 0.1 µM, first compound 3.16 µM
[12] = second compound 0.1 µM, first compound 10 µM
[13] = second compound 0.316 µM, first compound 0.0316 µM
[14] = second compound 0.316 µM, first compound 0.1 µM
[15] = second compound 0.316 µM, first compound 0.316 µM
[16] = second compound 0.316 µM, first compound 1 µM
[17] = second compound 0.316 µM, first compound 3.16 µM
[18] = second compound 0.316 µM, first compound 10 µM
[19] = second compound 1 µM, first compound 0.0316 µM
[20] = second compound 1 µM, first compound 0.1 µM
[21] = second compound 1 µM, first compound 0.316 µM
[22] = second compound 1 µM, first compound 1 µM
[23] = second compound 1 µM, first compound 3.16 µM
[24] = second compound 1 µM, first compound 10 µM
[25] = second compound 3.16 µM, first compound 0.0316 µM
[26] = second compound 3.16 µM, first compound 0.1 µM
[27] = second compound 3.16 µM, first compound 0.316 µM
[28] = second compound 3.16 µM, first compound 1 µM
[29] = second compound 3.16 µM, first compound 3.16 µM
[30] = second compound 3.16 µM, first compound 10 µM
[31] = second compound 10 µM, first compound 0.0316 µM
[32] = second compound 10 µM, first compound 0.1 µM
[33] = second compound 10 µM, first compound 0.316 µM
[34] = second compound 10 µM, first compound 1 µM
[35] = second compound 10 µM, first compound 3.16 µM
[36] = second compound 10 µM, first compound 10 µM
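Also: spheroids exposed to compounds for seven days.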
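For viability, T/C in this document: 100% = DMSO vehicle control viability.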

CNCc1ccc(-c2[nH]c3cc(F)cc4c3c2CCNC4=O)cc1 + Cc1cccc(N(C)C(=O)C2C(O)CCN2c2nc(C)cc(C(F)(F)F)c2C#N)c1
> 10000 nM: IC50 (second compound 0.0316 µM) | IC50 (second compound 0.1 µM) | IC50 (second compound 0.316 µM) | IC50 (second compound 1 µM) | IC50 (second compound 3.16 µM) | IC50 (second compound 10 µM)
inactive: viability, T/C [1] 122% | viability, T/C [2] 89.9% | viability, T/C [3] 135% | viability, T/C [4] 113% | viability, T/C [5] 122% | viability, T/C [6] 144% | viability, T/C [7] 122% | viability, T/C [8] 94.3% | viability, T/C [9] 98.2% | viability, T/C [10] 93% | viability, T/C [11] 134% | viability, T/C [12] 140% | viability, T/C [13] 99.1% | viability, T/C [14] 105% | viability, T/C [15] 87.4% | viability, T/C [16] 98.1% | viability, T/C [17] 113% | viability, T/C [18] 124% | viability, T/C [19] 117% | viability, T/C [20] 98.7% | viability, T/C [21] 105% | viability, T/C [22] 104% | viability, T/C [23] 138% | viability, T/C [24] 129% | viability, T/C [25] 85.9% | viability, T/C [26] 114% | viability, T/C [27] 80.2% | viability, T/C [28] 85.1% | viability, T/C [29] 117% | viability, T/C [30] 150% | viability, T/C [31] 104% | viability, T/C [32] 98.4% | viability, T/C [33] 104% | viability, T/C [34] 103% | viability, T/C [35] 103% | viability, T/C [36] 138%

Cn1ncnc1[C@H]1c2n[nH]c(=O)c3cc(F)cc(c23)N[C@@H]1c1ccc(F)cc1 + Cc1cccc(N(C)C(=O)C2C(O)CCN2c2nc(C)cc(C(F)(F)F)c2C#N)c1
inactive: viability, T/C (second compound 0.0316 µM, first compound 0.000316 µM) 111% | viability, T/C (second compound 0.0316 µM, first compound 0.001 µM) 86.9% | viability, T/C (second compound 0.0316 µM, first compound 0.00316 µM) 105% | viability, T/C (second compound 0.0316 µM, first compound 0.01 µM) 128% | viability, T/C [1] 98.3% | viability, T/C [2] 89.3% | viability, T/C (second compound 0.1 µM, first compound 0.000316 µM) 125% | viability, T/C (second compound 0.1 µM, first compound 0.001 µM) 125% | viability, T/C (second compound 0.1 µM, first compound 0.00316 µM) 102% | viability, T/C (second compound 0.1 µM, first compound 0.01 µM) 128% | viability, T/C [7] 91.8% | viability, T/C [8] 100% | viability, T/C (second compound 0.316 µM, first compound 0.000316 µM) 95.9% | viability, T/C (second compound 0.316 µM, first compound 0.001 µM) 114% | viability, T/C (second compound 0.316 µM, first compound 0.00316 µM) 98.2% | viability, T/C (second compound 0.316 µM, first compound 0.01 µM) 93.5% | viability, T/C [13] 111% | viability, T/C [14] 95.5% | viability, T/C (second compound 1 µM, first compound 0.000316 µM) 116% | viability, T/C (second compound 1 µM, first compound 0.001 µM) 110% | viability, T/C (second compound 1 µM, first compound 0.00316 µM) 89% | viability, T/C (second compound 1 µM, first compound 0.01 µM) 102% | viability, T/C [19] 119% | viability, T/C [20] 91.6% | viability, T/C (second compound 3.16 µM, first compound 0.000316 µM) 106% | viability, T/C (second compound 3.16 µM, first compound 0.001 µM) 130% | viability, T/C (second compound 3.16 µM, first compound 0.00316 µM) 82.9% | viability, T/C (second compound 3.16 µM, first compound 0.01 µM) 115% | viability, T/C [25] 88.5% | viability, T/C [26] 112% | viability, T/C (second compound 10 µM, first compound 0.000316 µM) 105% | viability, T/C (second compound 10 µM, first compound 0.001 µM) 102% | viability, T/C (second compound 10 µM, first compound 0.00316 µM) 105% | viability, T/C (second compound 10 µM, first compound 0.01 µM) 82.7% | viability, T/C [31] 81.5% | viability, T/C [32] 100%
> 100 nM: IC50 (second compound 0.0316 µM) | IC50 (second compound 0.1 µM) | IC50 (second compound 0.316 µM) | IC50 (second compound 1 µM) | IC50 (second compound 3.16 µM) | IC50 (second compound 10 µM)

Nc1ccn(C2OC(CO)C(O)C2(F)F)c(=O)n1 (stereo not drawn) + Cc1cccc(N(C)C(=O)C2C(O)CCN2c2nc(C)cc(C(F)(F)F)c2C#N)c1
100 nM: IC50 (second compound 1 µM)
94.7 nM: IC50 (second compound 0.316 µM)
98.1 nM: IC50 (second compound 0.0316 µM)
115 nM: IC50 (second compound 3.16 µM)
95.7 nM: IC50 (second compound 0.1 µM)
inactive: viability, T/C [1] 84% | viability, T/C [2] 45.3% | viability, T/C [3] 35.2% | viability, T/C [4] 23.9% | viability, T/C [5] 17.8% | viability, T/C [6] 13.6% | viability, T/C [7] 101% | viability, T/C [8] 46.8% | viability, T/C [9] 30.3% | viability, T/C [10] 23.1% | viability, T/C [11] 23.2% | viability, T/C [12] 16% | viability, T/C [13] 81.7% | viability, T/C [14] 47% | viability, T/C [15] 31.9% | viability, T/C [16] 25.9% | viability, T/C [17] 18.2% | viability, T/C [18] 16.6% | viability, T/C [19] 84.5% | viability, T/C [20] 45.5% | viability, T/C [21] 32.7% | viability, T/C [22] 30.4% | viability, T/C [23] 21.7% | viability, T/C [24] 10.5% | viability, T/C [25] 92.5% | viability, T/C [26] 50.9% | viability, T/C [27] 31.8% | viability, T/C [28] 30.2% | viability, T/C [29] 24.6% | viability, T/C [30] 13.9% | viability, T/C [31] 74.9% | viability, T/C [32] 48.6% | viability, T/C [33] 38.2% | viability, T/C [34] 25% | viability, T/C [35] 20.8% | viability, T/C [36] 12.3%
111 nM: IC50 (second compound 10 µM)

O=C(c1cc(Cc2n[nH]c(=O)c3ccccc23)ccc1F)N1CCN(C(=O)C2CC2)CC1 + Cc1cccc(N(C)C(=O)C2C(O)CCN2c2nc(C)cc(C(F)(F)F)c2C#N)c1
inactive: viability, T/C [1] 104% | viability, T/C [2] 107% | viability, T/C [3] 109% | viability, T/C [4] 107% | viability, T/C [5] 106% | viability, T/C [6] 80.7% | viability, T/C [7] 110% | viability, T/C [8] 108% | viability, T/C [9] 112% | viability, T/C [10] 90.9% | viability, T/C [11] 116% | viability, T/C [12] 80.4% | viability, T/C [13] 83.3% | viability, T/C [14] 94% | viability, T/C [15] 101% | viability, T/C [16] 87.3% | viability, T/C [17] 94% | viability, T/C [18] 85.3% | viability, T/C [19] 100% | viability, T/C [20] 92.2% | viability, T/C [21] 108% | viability, T/C [22] 111% | viability, T/C [23] 107% | viability, T/C [24] 95.3% | viability, T/C [25] 92.2% | viability, T/C [26] 117% | viability, T/C [27] 104% | viability, T/C [28] 88.6% | viability, T/C [29] 101% | viability, T/C [30] 101% | viability, T/C [31] 84.6% | viability, T/C [32] 110% | viability, T/C [33] 90.4% | viability, T/C [34] 110% | viability, T/C [35] 87% | viability, T/C [36] 107%
> 10000 nM: IC50 (second compound 0.0316 µM) | IC50 (second compound 0.1 µM) | IC50 (second compound 0.316 µM) | IC50 (second compound 1 µM) | IC50 (second compound 3.16 µM) | IC50 (second compound 10 µM)
